17 compounds from PubChem BioAssay AID330 (DTP/NCI, 2004) can be followed below.

The assay has as its system P388 leukemia ip, CD2F1 mice, survival T/C. Nature of the assay: NCI In Vivo Anticancer Drug Screen. Data for tumor model P388 Leukemia (intraperitoneal) in CD2F1 (CDF1) mice. The note with it: endpoint: median survival time, higher = longer survival. The method in brief:
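Mice carrying the transplanted tumor received test compound or vehicle. Survival was recorded in each group, and the value is the treated-group measurement divided by that of the vehicle-treated control group.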

The mark [1] stands for this setting: dose: 12.5 mg/kg/injection, schedule: Q01DX009 (ip), vehicle: saline with Tween-80.
Setting [2] is: dose: 25.0 mg/kg/injection, schedule: Q01DX009 (ip), vehicle: saline with Tween-80.
Where [3] appears, read: dose: 50.0 mg/kg/injection, schedule: Q01DX009 (ip), vehicle: saline with Tween-80.
Where [4] appears, read: dose: 60.0 mg/kg/injection, schedule: Q01DX005 (ip), vehicle: saline with Tween-80.
[5] abbreviates: dose: 120.0 mg/kg/injection, schedule: Q01DX005 (ip), vehicle: saline with Tween-80.
Where [6] appears, read: dose: 240.0 mg/kg/injection, schedule: Q01DX005 (ip), vehicle: saline with Tween-80.
The mark [7] stands for this setting: dose: 50.0 mg/kg/injection, schedule: Q01DX005 (ip), vehicle: saline with Tween-80.

Each structure is given as a SMILES string. Where “and” joins values, the source holds several entries; their conditions need not be identical. Equal entries are not always repeated. Toxic doses and inconclusive results are not listed.

For the compound `O=C(Nc1ccc(F)cc1F)Oc1ccc2cc(Br)ccc2c1`, the T/C is 97 % of control (dose: 50.0 mg/kg/injection, schedule: Q01DX009 (ip), vehicle: saline + alcohol); 91 % of control (dose: 100.0 mg/kg/injection, schedule: Q01DX009 (ip), vehicle: saline + alcohol); 100 % of control (dose: 200.0 mg/kg/injection, schedule: Q01DX009 (ip), vehicle: saline + alcohol).

With `CC(C)(O)C1CCC2(C)CC(=O)NCCN12` (configuration not stated), the T/C reads like this: (dose: 25.0 mg/kg/injection, schedule: Q01DX001 (ip), vehicle: Klucel (hydroxypropylcellulose) (HPC)) 112 % of control; (dose: 50.0 mg/kg/injection, schedule: Q01DX001 (ip), vehicle: Klucel (hydroxypropylcellulose) (HPC)) 106 % of control.

As for `NNc1cccc(C(F)(F)F)c1`, the T/C by setting is: under setting [1], 100 % of control; under setting [2], 90 % of control; (dose: 25.0 mg/kg/injection, schedule: Q04DX003 (ip), vehicle: saline with Tween-80) 100 % of control; under setting [3], 95 % of control; (dose: 50.0 mg/kg/injection, schedule: Q04DX003 (ip), vehicle: saline with Tween-80) 105 % of control; (dose: 100.0 mg/kg/injection, schedule: Q04DX003 (ip), vehicle: saline with Tween-80) 100 % of control.

Take `Nc1nc2nc3c(nc2c(=O)[nH]1)CCCC3`: the T/C is, setting by setting: under setting [4], 101 % of control; under setting [5], 92 % of control; under setting [6], 90 % of control.

As for `CC1(C)C2CCC(C2)C1C(=O)CCN1CCc2ccccc2C1` (configuration not stated), the T/C is 106 % of control under setting [1], 107 % of control under setting [2] and 107 % of control under setting [3].

Consider `COC(=O)C1=CO[C@@H](O)[C@@H]2C(C)OC(=O)C[C@H]12` (some centres not stated), for which the T/C (dose: 60.0 mg/kg/injection, schedule: Q01DX005 (ip), vehicle: saline) was 104 % of control; the T/C (dose: 120.0 mg/kg/injection, schedule: Q01DX005 (ip), vehicle: saline) is 104 % of control; the T/C (dose: 240.0 mg/kg/injection, schedule: Q01DX005 (ip), vehicle: saline) is 109 % of control.

For the compound `CN(C)C1C(=O)C(C(N)=O)=C(O)C2(O)C(=O)C3=C(O)c4c(O)cccc4C(C)(O)C3CC12.[Cl][Sb]([Cl])[Cl]` (configuration not stated), the T/C was 119 % of control under setting [7] and 108 % of control (dose: 100.0 mg/kg/injection, schedule: Q01DX005 (ip), vehicle: saline with Tween-80).

Regarding `CCOC(=O)C1n2c(=O)n(-c3ccccc3)c(=O)n21`, the T/C was 96 % of control (dose: 50.0 mg/kg/injection, schedule: Q01DX005 (ip), vehicle: Klucel + Tween-80); 87 % of control (dose: 100.0 mg/kg/injection, schedule: Q01DX005 (ip), vehicle: Klucel + Tween-80); 93 % of control (dose: 200.0 mg/kg/injection, schedule: Q01DX005 (ip), vehicle: Klucel + Tween-80).

As to `CC[n+]1ccc2c(C)c3[nH]c4ccc(O)cc4c3c(C)c2c1`, the T/C runs as follows: (dose: 1.56 mg/kg/injection, schedule: Q04DX003 (ip), vehicle: saline) 165 % of control; (dose: 3.12 mg/kg/injection, schedule: Q04DX003 (ip), vehicle: saline) 192 % of control; (dose: 6.25 mg/kg/injection, schedule: Q04DX003 (ip), vehicle: saline) 171 % of control and 223 % of control; (dose: 12.5 mg/kg/injection, schedule: Q04DX003 (ip), vehicle: saline) 103 % of control and 90 % of control; (dose: 25.0 mg/kg/injection, schedule: Q04DX003 (ip), vehicle: saline) 90 % of control; (dose: 50.0 mg/kg/injection, schedule: Q04DX003 (ip), vehicle: saline) 90 % of control.

As for `CC(C)(C)C1CC[N+](=C(O[B-](F)(F)F)c2ccccc2)CC1` (configuration not stated), the T/C by setting is: under setting [4], 100 % of control; under setting [5], 103 % of control.

Turning to `Cc1ccc2nc(CC(=O)c3ccccc3)c(CC(=O)c3ccccc3)nc2c1`, the T/C is 93 % of control under setting [4], 94 % of control under setting [5] and 96 % of control under setting [6].

Consider `CN(C)c1ccc(/C=N/NC(=O)CC2CCCCC2)cc1`, for which the T/C was 100 % of control under setting [4], 108 % of control under setting [5] and 102 % of control under setting [6].

With `CSc1nc(=O)c(=O)nc(Nc2ccccc2)n1-c1ccccc1`, the T/C is, setting by setting: under setting [3], 86 % of control; (dose: 200.0 mg/kg/injection, schedule: Q01DX009 (ip), vehicle: saline with Tween-80) 87 % of control.

Take `CCCC1CCC(=C2C(=O)CCC2=O)O1` (configuration not stated): the T/C reads like this: (dose: 25.0 mg/kg/injection, schedule: Q04DX002 (ip), vehicle: saline) 102 % of control; (dose: 50.0 mg/kg/injection, schedule: Q04DX002 (ip), vehicle: saline) 102 % of control; (dose: 100.0 mg/kg/injection, schedule: Q04DX002 (ip), vehicle: saline with Tween-80) 110 % of control; (dose: 100.0 mg/kg/injection, schedule: Q04DX002 (ip), vehicle: saline) 103 % of control; (dose: 200.0 mg/kg/injection, schedule: Q04DX002 (ip), vehicle: saline with Tween-80) 102 % of control; (dose: 200.0 mg/kg/injection, schedule: Q04DX002 (ip), vehicle: saline) 100 % of control.

Consider `COc1cc(NCCCCCNC(C)(C)C)c2ncccc2c1`, for which the T/C was 98 % of control (dose: 12.5 mg/kg/injection, schedule: Q01DX005 (ip), vehicle: saline with Tween-80); 98 % of control (dose: 25.0 mg/kg/injection, schedule: Q01DX005 (ip), vehicle: saline with Tween-80); 100 % of control and 103 % of control under setting [7].

With `COc1cc(C(O)(CCN2CCCCC2)c2ccc3c(c2)OCO3)cc(OC)c1OC` (configuration not stated), the T/C was 94 % of control (dose: 50.0 mg/kg/injection, schedule: Q01DX005 (ip), vehicle: saline + Tween-80 + alcohol); 100 % of control (dose: 100.0 mg/kg/injection, schedule: Q01DX005 (ip), vehicle: saline + Tween-80 + alcohol); 93 % of control (dose: 200.0 mg/kg/injection, schedule: Q01DX005 (ip), vehicle: saline + Tween-80 + alcohol).

With `C=C(C)C(=O)OC1C/C(CO)=C\C(O)C/C(C)=C/C2OC(=O)C(=C)C21` (configuration not stated), the T/C by setting is: (dose: 1.25 mg/kg/injection, schedule: Q01DX009 (ip), vehicle: saline + alcohol) 121 % of control; (dose: 2.5 mg/kg/injection, schedule: Q01DX009 (ip), vehicle: saline + alcohol) 104 % of control; (dose: 10.0 mg/kg/injection, schedule: Q01DX009 (ip), vehicle: saline + alcohol) 159 % of control; (dose: 20.0 mg/kg/injection, schedule: Q01DX009 (ip), vehicle: saline + alcohol) 167 % of control.
